Source: PubChem BioAssay (NCI)
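Values below derive from 48-hour exposures of cells grown in 96-well plates, with endpoints linearly interpolated between the two concentrations bracketing the appropriate inhibition level. At the TGI there is no net growth.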

What was measured:
Experiment in all cases: growth of human tumour cells (NCI), 48 h
[1] = tested on: A498 renal
[2] = tested on: ACHN renal
[3] = tested on: EKVX NSCLC
[4] = tested on: HCT-15 colon
[5] = tested on: KM12 colon
[6] = tested on: MOLT-4 leukemia
[7] = tested on: NCI-H460 lung
[8] = tested on: NCI-H522 lung
[9] = tested on: RXF 393 renal
[10] = tested on: SF-268 CNS
[11] = tested on: SK-MEL-2 melanoma
[12] = tested on: U251 CNS
[13] = tested on: UACC-257 melanoma
[14] = tested on: HL-60(TB) leukemia

Measured: TGI

O=[N+]([O-])c1ccc(Nc2nc3ccccc3s2)cc1
39.3 µM: [12]
30.3 µM: [6]
28.9 µM: [9]
40.4 µM: [3]
92 µM: [1]
35.9 µM: [8]
75.6 µM: [13]
91.7 µM: [10]
81 µM: [11]
not listed: [14]
> 100 µM: all other assays above

C[C@H]1C[C@H](C)c2ccccc2N(C)C1=Nc1ccccc1
72.7 µM: [6]
84.4 µM: [1]
64.4 µM: [7]
92.2 µM: [9]
48.2 µM: [13]
48.3 µM: [14]
44.2 µM: [11]
not listed: [8] | [12]
> 100 µM: all other assays above

COc1cc(C2=C(C#N)C(N)OC3=C2COc2ccccc23)cc(OC)c1OC (stereo unspecified)
89.1 µM: [10]
43.7 µM: [3]
56.3 µM: [1]
84.8 µM: [7]
33.2 µM: [12]
32.2 µM: [2]
not listed: [8] | [9]
> 100 µM: all other assays above

O=C(c1cccs1)N(C(=S)N1CCN(c2ccccn2)CC1)C1CCCCC1
not listed: [1] | [3]
> 100 µM: all other assays above

C#C[C@]1(O)CCC2C3CCc4cc(Oc5nc(F)nc(-c6c7cc8ccccc8cc7c7n6CCS7)n5)ccc4C3CCC21C (stereo partly specified)
89.7 µM: [11]
62.7 µM: [8]
not listed: [1] | [4]
> 100 µM: all other assays above

N=C(N)c1csc([C@@H]2O[C@H](CO)[C@@H](O)[C@H]2O)n1
not listed: [1] | [8]
> 100 µM: all other assays above

Cn1c(Nc2ccccc2)c(C=Nc2ccccc2)c(=O)n(C)c1=O
not listed: [2] | [3] | [4] | [8]
> 100 µM: all other assays above

CC1=CC(=O)C(=O)C2=C1OC1(C2)C(C)CCC2C3(C)CCC(O)C(C)(C)C3CCC21C (stereo unspecified)
29.9 µM: [5] | [12]
31.9 µM: [2]
34.3 µM: [13]
30.7 µM: [8]
63 µM: [10]
5.51 µM: [14]
42.1 µM: [4]
78.4 µM: [6]
35.1 µM: [7]
33.2 µM: [9]

NC(CCP(=O)(O)CCC1C=CC=CC1)C(=O)O (stereo unspecified)
55.4 µM: [8]
not listed: [1]
> 100 µM: all other assays above

COc1ccc(NC(C)=O)cc1C1CCC(=O)N1 (stereo unspecified)
not listed: [9]
> 100 µM: all other assays above

CCCCCCCCC/C=C1\CC(CO)(COC(=O)C2CCCCC2)OC1=O (stereo unspecified)
39.1 µM: [3]
57.6 µM: [6]
41.7 µM: [4]
69.1 µM: [2]
38.9 µM: [5]
57.1 µM: [7]
50.6 µM: [1]
42.6 µM: [12]
87.4 µM: [13]
43.1 µM: [11]
46.7 µM: [10]
38.7 µM: [9]
34.6 µM: [8]

CCOP(=O)(OCC)c1ccc(=O)[nH]c1-c1cccs1
not listed: [14]
> 100 µM: all other assays above

O=C1c2ccccc2C2=Nc3ccncc3CN12
not listed: [1]
> 100 µM: all other assays above

CCOC(=O)C1C(c2ccc(OC)cc2)c2c([nH][nH]c2=O)CC1(O)OCC (stereo unspecified)
not listed: [9]
> 100 µM: all other assays above

CNn1c(C)n[nH]c1=O
not listed: [9]
> 100 µM: all other assays above

O=c1oc2ccccc2c(O)c1C(c1ccc(/C=C/c2ccccc2)cc1)c1c(O)c2ccccc2oc1=O
35.6 µM: [2]
55.9 µM: [7]
43.9 µM: [12]
49.1 µM: [8]
66.8 µM: [6]
64.4 µM: [5]
64.9 µM: [10]
not listed: [9]
> 100 µM: all other assays above

CCSC1=N/C(=C\c2ccco2)C(Cl)=N1
not listed: [8] | [9]
> 100 µM: all other assays above

O=C(O)c1ccccc1C(=O)Nn1cnnc1
not listed: [1] | [7] | [14]
> 100 µM: all other assays above
